Experimental data from paper PMC10523607 (Proceedings of the National Academy of Sciences of the …, 2023).

Molecular target: GPR34 (Homo sapiens, UniProt Q9UPC5)
Assay: Tango assay
Assay type: cell-based
Details: compared with Hit-1 or YL-365

GPR34, sequence (Q9UPC5 whole entry): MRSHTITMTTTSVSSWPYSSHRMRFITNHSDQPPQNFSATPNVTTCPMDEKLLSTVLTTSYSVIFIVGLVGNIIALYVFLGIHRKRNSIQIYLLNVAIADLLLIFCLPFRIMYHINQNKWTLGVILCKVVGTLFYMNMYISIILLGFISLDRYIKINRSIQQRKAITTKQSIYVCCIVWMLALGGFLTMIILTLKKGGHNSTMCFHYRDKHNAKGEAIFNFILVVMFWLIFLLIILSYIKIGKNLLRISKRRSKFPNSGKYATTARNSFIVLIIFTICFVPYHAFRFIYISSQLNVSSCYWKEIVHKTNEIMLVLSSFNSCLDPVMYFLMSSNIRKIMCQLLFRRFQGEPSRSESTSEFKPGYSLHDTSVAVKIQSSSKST

NC(=O)C1(NC(=O)Cc2ccc(OCc3ccccc3)cc2)CCN(C(=O)c2ccc(-c3cccc(Cl)c3)cc2)CC1 [C-27]
Potency against GPR34 in words (SAR): showed antagonistic effect
